Measurements taken from patent US11291625B2, “Antimicrobial compositions and methods for reducing microbial contamination” (PolyVation B.V., priority 2015, dated 2022).

Assay: BKC / BEZ release assay from polymer film with aqueous BPB solution
Format: physicochemical
Conditions: for release from 0.45% biocide coating without copolymer upon addition of the BPB solution: reference, no polymer
Protocol: The different 5 wt % polymer formulations were supplemented with 0.45 wt % BKC and 20 μl coated to the first well of each row of a 96-well plate. After evaporation of the solvent (2-propanol), 100 μl of an aqueous BPB ([…]) solution (25×10^−3 mmol/L) was added to the coated wells and the plate was incubated for 30 seconds at room temperature. Next, the aqueous phase was removed from the well and the formation of blue BPB-BKC complexes was assessed by visual inspection. This process was repeated until blue BPB-BKC complexes were no longer observed, and the number of repeated BPB incubation steps was recorded.
The slow release properties of the PVPM20, PVPMDM, PVPMEM and PVPDDM co-polymer formulations were verified in a BKC and a BEZ release test that were performed in 96-well plates. The different polymer formulations (i.e. PVPM20-85:15, PVPM20-80:20, PVPM20-65:35, PVPMDM-60:40, PVPMDM-75:25, PVPMEM-80:20 and PVPDDM-80:20 in 2-propanol at 2.5 wt % were supplemented with 0.45 wt % BKC or BEZ. 20 μl was coated to the first well of each row of a 96-well plate. After evaporation of the 2-propanol solvent, 100 μl of an aqueous BPB solution (25×10^−3 mmol/L) was added to the coated wells and the plate was incubated for 30 seconds at room temperature. BPB forms a blue complex with free BKC and free BEZ when it is released from the polymer film into an aqueous solution. Of note, the BPB-BKC or BPB-BEZ complex is blue, whereas the BPB solution itself is purple (20). Next, the aqueous phase was removed from the well and the formation of blue BPB-BKC or BPB-BEZ complexes was assessed by visual inspection. This process was repeated until blue BPB-BKC complexes were no longer observed, and the number of repeated BPB incubation steps was recorded.
The number of cycles needed to release readily detectable amounts of BKC or BEZ was used as a measure to assess the BKC-retaining or BEZ-retaining properties of the different polymer formulations.

Molecule | Test1 (BKC): Number of incubations after which BKC was no longer detectable (0.45 wt % BKC, 30 seconds incubations with aqueous BPB solution, room temperature) [x] | release from 0.45% biocide coating without copolymer upon addition of the BPB solution | Test2 (BEZ): Number of incubations after which BEZ was no longer detectable (0.45 wt % BEZ, 30 seconds incubations with aqueous BPB solution, room temperature) [x]
benzalkonium chloride [BKC only] | 1 | dissolved instantaneously | 
CC(C)(C)CC(C)(C)c1ccc(OCCOCC[N+](C)(C)Cc2ccccc2)cc1 [BEZ only, benzethonium chloride] |  | dissolved instantaneously | 1
